The results in this text go back to patent US12090179B2, “Methods of synergistic treatment of cancer” (priority 2016, dated 2024).

A value given as a limit tells only on which side of the number the result lay.

Series [1] in a line: Percent weight change as measure of toxicity in BALB-neuT mice. Format: in vivo. The method, then:
Female BALB-neu-T mice spontaneously developed palpable mammary fat pad tumors around 16 weeks of age (approximately 50-60 mm^3). At this time (day 0), the mice typically had 1-3 palpable tumors. For each experiment, individual tumors were measured by caliper, and their volume was calculated. Individual tumor volumes were calculated as spheroid (L×W^2×0.52) and combined to give a total tumor burden measurement for each mouse. Tumor burden data was gathered weekly from day 0 to day 35. Additionally, percent weight change data was gathered weekly for each mouse from day 0 to day 35. The percent weight change was calculated based on the baseline weight of each mouse.
Various embodiments of method 200, described above with respect to FIG. 2, were used to treat tumors in the BALB-neuT model using combinations of attenuated S. typhimurium and the chemotherapy agent doxorubicin. A prescribed amount per cfu of the appropriate S. typhimurium strain (SalpIL2 or SalpNG.1) was administered via intravenous injection or gavage orally in 100 μL of PBS. The doxorubicin was administered intravenously via tail vein. Additionally, using the same methods of administration, a number of control groups received PBS alone, doxorubicin alone, SalpIL2 alone, or SalpNG.1 alone.
FIG. 6 is a line graph of percent weight change versus days post-treatment in mice treated with combinations of attenuated S. typhimurium and doxorubicin compared to control groups. Weight change in mice is an accurate measure of the degree of toxicity of a chemotherapy agent. […] While the control group that received PBS (301) saw a greater than 25% increase in weight by day 30, the mice in that group died or were moribund and euthanized due to tumor growth.

The test system of the next series is mammary fat pad tumors. It counts as in vivo, BALB-neuT mice.
The mark [2] stands for this setting: doxorubicin alone IV 1.25 mg/kg on days 0, 7, 14, group 304.
[3] abbreviates: doxorubicin alone IV 5 mg/kg (MTD) on days 0, 7, 14, group 302.
Setting [4] is: doxorubicin alone IV 1.25 mg/kg (25% of MTD) on days 0, 7, 14, group 304.

Text for mammary fat pad tumors: The BALB-neuT model is a genetically engineered mouse model in which mammary tumor development is driven by expression of a constitutively activated rat homolog of human epidermal growth factor receptor 2. In this model, autochthonous tumors develop over several months and are palpable in the mammary pads of female mice around 16 weeks of age. The tumors closely resemble the aggressive Her2-driven cancer found in human patients.
BALB-neuT mice were maintained in specific pathogen free conditions and fed standard mouse chow (Harlan). Animals were cared for by the University of Minnesota's Research Animal Resources, and all animal use was approved by the University's Institutional Animal Care and Use Facility. Genotyping for the neu transgene was performed by Transnetyx on male and female pups. Breeding pairs consisted of heterozygous males and homozygous negative females. Female mice that were positive for the neu transgene were monitored for tumor development.
Three control groups received doxorubicin alone. The first control group (302) received the maximum tolerated dose (MTD) of intravenous (IV) 5 mg/kg doxorubicin on days 0, 7, and 14. The second control group (303) received IV 2.5 mg/kg (50% reduction in MTD) doxorubicin on days 0, 7 and 14.
One control group (305) of mice received SalpIL2 alone. […] Another control group (306) received Salp NG.1 alone.
For combination therapy treatment with SalpIL2, one group of mice (307) received an oral dose of 1×10^9 cfu SalpIL2 as well as IV 1.25 mg/kg doxorubicin on day 0. Two additional doses of IV 1.25 mg/kg doxorubicin were administered on days 7 and 14. For combination therapy treatment with SalpNG.1, a first group of mice (308) received an IV dose of 2×10^6 cfu SalpNG.1 as well as IV 1.25 mg/kg doxorubicin on day 0. Two additional doses of IV 1.25 mg/kg doxorubicin were administered on days 7 and 14. A second group of mice (309) received an IV dose of 2×10^6 cfu SalpNG.1 as well as IV 2.5 mg/kg doxorubicin on day 0. Two additional doses of IV 2.5 mg/kg doxorubicin were administered on days 7 and 14.

`COc1cccc2c1C(=O)c1c(O)c3c(c(O)c1C2=O)C[C@@](O)(C(=O)CO)C[C@@H]3O[C@H]1C[C@H](N)[C@H](O)[C@H](C)O1` [doxorubicin]: in series [1] (setting [2]), the “toxicity judged from weight change” value is given as “non-toxic”, the “weight change by day 14” value was “did not show any weight loss” and the “weight gain by day 35” value was under 10%. For the same compound, in series [1] (setting [3]), the “toxicity judged from weight change” value was “significant toxicity”, the “weight loss by day 14” value was “greater than 20%” and the “weight loss by day 35” value is on record as about 10%. In addition, in the series on mammary fat pad tumors (setting [4]), the “tumor burden relative to the MTD doxorubicin group (302) by day 21” value is given as “almost double” and the “tumor burden relative to the MTD doxorubicin group (302) by day 35” value was about 5 times. Also, the “tumor burden compared with groups 302 (MTD) and 304 (1.25 mg/kg)” value in the series on mammary fat pad tumors (doxorubicin alone IV 2.5 mg/kg (50% of MTD) on days 0, 7, 14, group 303) is listed as “in between”. Moreover, in the series with mammary fat pad tumors (setting [3]), the “tumor burden at day 35” value is listed as “around 100 mm^3” and the “tumor burden compared with the other groups” value is on record as “lowest”.
